How the values were obtained:
CFTR ΔF508 mutant = target: T1, CFTR ΔF508 mutant (Homo sapiens, UniProt P13569, DEL508-508); assay: YFP-halide influx assay for the CFTR-ΔF508 mutation (CFBE41o- cells); assay type: cell-based; details: forskolin 10.67 μM; for EC50: from (1−F/F0) vs concentration plot
T1 construct: expressed in transfected cells; host or cells: CFBE41o- cells, adenoviral transduction
How it was run: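 CFBE41o- cells transduced with adenovirus expressing CFTR ΔF508 and halide-sensitive YFP H148Q/I152L/F47L, then held 24 h at 27° C or with a CFTR modulator 24 h at 37° C. Iodide-induced quench recorded 2 min; EC50 from (1−F/F0) at 36 s versus concentration.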

CFTR G551D mutant = target: T2, CFTR G551D mutant (Homo sapiens, UniProt P13569, G551D); assay: YFP-halide influx assay for the CFTR-G551D mutation (HEK293 cells); assay type: cell-based; details: forskolin 10.67 μM
T2 construct: expressed in transfected cells; host or cells: HEK293 cells, reverse transfection with plasmids
How it was run: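 HEK293 cells reverse-transfected with CFTR G551D and halide-sensitive YFP (H148Q/I152L/F47L), expressed 24 h at 37 °C. YFP fluorescence quenching recorded for 7 s after I⁻ injection. Response = 1−F/F0; EC50 derived from 1−F/F0 vs compound concentration.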

T2 sequence (P13569 whole entry G551D): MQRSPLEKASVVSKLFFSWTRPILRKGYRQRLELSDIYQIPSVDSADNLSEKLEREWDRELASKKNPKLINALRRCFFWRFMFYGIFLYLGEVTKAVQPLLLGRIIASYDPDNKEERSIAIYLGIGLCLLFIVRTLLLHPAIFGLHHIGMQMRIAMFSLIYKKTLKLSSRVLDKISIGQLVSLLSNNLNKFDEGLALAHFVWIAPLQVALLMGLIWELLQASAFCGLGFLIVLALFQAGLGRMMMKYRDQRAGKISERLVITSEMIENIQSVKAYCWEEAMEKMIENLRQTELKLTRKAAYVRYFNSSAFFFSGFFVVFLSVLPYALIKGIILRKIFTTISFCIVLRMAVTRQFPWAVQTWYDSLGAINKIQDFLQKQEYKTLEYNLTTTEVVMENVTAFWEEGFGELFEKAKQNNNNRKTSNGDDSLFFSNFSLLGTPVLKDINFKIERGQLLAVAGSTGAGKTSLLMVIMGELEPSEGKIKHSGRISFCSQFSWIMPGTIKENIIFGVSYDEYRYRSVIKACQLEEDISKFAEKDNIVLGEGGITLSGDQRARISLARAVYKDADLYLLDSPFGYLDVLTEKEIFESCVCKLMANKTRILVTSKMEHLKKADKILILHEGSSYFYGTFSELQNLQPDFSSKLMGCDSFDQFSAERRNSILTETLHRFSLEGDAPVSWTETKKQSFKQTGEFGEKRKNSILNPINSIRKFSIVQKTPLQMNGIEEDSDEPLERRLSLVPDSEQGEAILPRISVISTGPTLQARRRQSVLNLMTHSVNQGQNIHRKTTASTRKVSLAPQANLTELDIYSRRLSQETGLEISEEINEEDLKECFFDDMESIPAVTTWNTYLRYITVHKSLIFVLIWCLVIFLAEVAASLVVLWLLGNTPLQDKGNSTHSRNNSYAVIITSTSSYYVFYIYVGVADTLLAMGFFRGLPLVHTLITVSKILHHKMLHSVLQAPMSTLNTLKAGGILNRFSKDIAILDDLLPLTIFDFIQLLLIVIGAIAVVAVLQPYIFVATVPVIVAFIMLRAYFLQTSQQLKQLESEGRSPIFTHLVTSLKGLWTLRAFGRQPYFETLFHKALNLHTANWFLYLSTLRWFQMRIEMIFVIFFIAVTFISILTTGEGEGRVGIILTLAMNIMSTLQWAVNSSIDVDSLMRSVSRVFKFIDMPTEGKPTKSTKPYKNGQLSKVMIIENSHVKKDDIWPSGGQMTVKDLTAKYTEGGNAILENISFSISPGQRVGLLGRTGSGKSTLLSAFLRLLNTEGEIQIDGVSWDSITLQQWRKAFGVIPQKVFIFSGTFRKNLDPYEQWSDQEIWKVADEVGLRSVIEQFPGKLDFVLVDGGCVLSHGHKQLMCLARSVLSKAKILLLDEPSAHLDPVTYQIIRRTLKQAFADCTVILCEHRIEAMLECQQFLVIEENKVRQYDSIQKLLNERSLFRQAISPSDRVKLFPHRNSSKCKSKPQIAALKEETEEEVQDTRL
T1 sequence (P13569 with tags, fused parts or gaps DEL508-508): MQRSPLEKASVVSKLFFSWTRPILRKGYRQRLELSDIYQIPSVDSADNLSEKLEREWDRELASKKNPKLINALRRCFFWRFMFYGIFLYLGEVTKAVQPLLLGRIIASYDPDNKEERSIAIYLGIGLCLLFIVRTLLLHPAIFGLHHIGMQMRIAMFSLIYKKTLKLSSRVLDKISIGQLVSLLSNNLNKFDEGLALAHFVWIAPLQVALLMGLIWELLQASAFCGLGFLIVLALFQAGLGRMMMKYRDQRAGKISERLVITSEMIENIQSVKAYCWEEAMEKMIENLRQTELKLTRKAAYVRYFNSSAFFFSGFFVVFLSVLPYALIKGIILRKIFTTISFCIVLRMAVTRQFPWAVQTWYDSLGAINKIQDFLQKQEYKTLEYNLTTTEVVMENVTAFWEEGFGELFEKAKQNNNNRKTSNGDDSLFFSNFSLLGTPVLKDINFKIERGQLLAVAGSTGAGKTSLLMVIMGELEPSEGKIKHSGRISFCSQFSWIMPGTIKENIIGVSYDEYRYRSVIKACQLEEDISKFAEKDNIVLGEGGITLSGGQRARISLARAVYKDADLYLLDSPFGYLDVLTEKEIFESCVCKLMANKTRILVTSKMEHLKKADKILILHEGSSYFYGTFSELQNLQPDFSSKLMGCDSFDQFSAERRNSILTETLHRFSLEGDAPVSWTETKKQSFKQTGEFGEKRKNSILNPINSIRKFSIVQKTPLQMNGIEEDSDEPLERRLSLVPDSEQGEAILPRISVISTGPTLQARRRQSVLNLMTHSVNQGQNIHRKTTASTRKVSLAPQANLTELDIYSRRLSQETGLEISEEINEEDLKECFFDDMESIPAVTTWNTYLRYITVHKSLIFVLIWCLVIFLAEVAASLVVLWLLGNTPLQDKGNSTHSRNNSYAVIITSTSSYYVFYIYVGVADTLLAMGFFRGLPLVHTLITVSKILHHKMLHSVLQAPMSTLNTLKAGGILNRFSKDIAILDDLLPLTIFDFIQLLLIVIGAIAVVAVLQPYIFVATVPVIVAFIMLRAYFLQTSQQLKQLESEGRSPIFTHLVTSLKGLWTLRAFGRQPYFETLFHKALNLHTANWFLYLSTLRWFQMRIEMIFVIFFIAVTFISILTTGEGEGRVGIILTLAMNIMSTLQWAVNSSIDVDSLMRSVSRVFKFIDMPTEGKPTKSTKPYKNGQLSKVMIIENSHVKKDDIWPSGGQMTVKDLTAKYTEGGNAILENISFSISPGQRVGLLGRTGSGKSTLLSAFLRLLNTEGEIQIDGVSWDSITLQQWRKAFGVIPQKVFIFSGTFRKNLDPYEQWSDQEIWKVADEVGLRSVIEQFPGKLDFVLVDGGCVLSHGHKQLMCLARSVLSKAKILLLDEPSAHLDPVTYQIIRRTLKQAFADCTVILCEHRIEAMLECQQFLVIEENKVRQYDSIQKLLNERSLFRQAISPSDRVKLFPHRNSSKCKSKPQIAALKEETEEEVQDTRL

Row | % Activation (CFTR ΔF508 mutant) [%] | EC50 (CFTR ΔF508 mutant) [nM] | % Activation (CFTR G551D mutant) [%] | EC50 (CFTR G551D mutant) [nM] | SMILES
1 | 111.7 | 17.5 | 69.3 | 661 | CC(C)COCC(O)CNC(=O)c1ncc(S(=O)(=O)c2ccc(C(F)(F)F)cc2)cc1N (stereo not shown) [Compound 166, 3-amino-N-[2-hydroxy-3-(2-methylpropoxy)propyl]-5-{[4-(trifluoromethyl)phenyl]sulfonyl}pyridine-2-carboxamide]
2 | 98.3 | 2.6 | 47.6 | 181 | Nc1cc(S(=O)(=O)c2ccc(OC(F)(F)F)cc2F)cnc1C(=O)N1CC(O)(C(F)(F)F)C1 [Compound 173, (3-amino-5-{[2-fluoro-4-(trifluoromethoxy)phenyl]sulfonyl}pyridin-2-yl)[3-hydroxy-3-(trifluoromethyl)azetidin-1-yl]methanone]
3 | 11.9 | > 2000 | 1.4 | > 10000 | Nc1cc(S(=O)(=O)c2ccc(C(F)(F)F)cc2)cnc1C(=O)N1CCC[C@H]1CO [Compound 226, (3-amino-5-{[4-(trifluoromethyl)phenyl]sulfonyl}pyridin-2-yl)[(2S)-2-(hydroxymethyl)pyrrolidin-1-yl]methanone]
4 | 88.8 | 42.5 | 60.2 | 510 | CC(C)[C@@H](CO)NC(=O)c1ncc(S(=O)(=O)c2ccc(OC(F)(F)F)cc2)cc1N [Compound 148, 3-amino-N-[(2S)-1-hydroxy-3-methylbutan-2-yl]-5-{[4-(trifluoromethoxy)phenyl]sulfonyl}pyridine-2-carboxamide]
5 | 110.0 | 25.8 | 73.6 | 1590 | Nc1cc(S(=O)(=O)c2ccc(OC(F)(F)F)cc2)cnc1C(=O)N1CC(F)C1 [Compound 67, (3-amino-5-{[4-(trifluoromethoxy)phenyl]sulfonyl}pyridin-2-yl)(3-fluoroazetidin-1-yl)methanone]
6 | 103.0 | 6.3 | 44.0 | > 3330 | CC(C)C1(O)CN(C(=O)c2ncc(S(=O)(=O)c3ccc(OC(F)(F)F)cc3F)cc2N)C1 [Compound 175, (3-amino-5-{[2-fluoro-4-(trifluoromethoxy)phenyl]sulfonyl}pyridin-2-yl)[3-hydroxy-3-(propan-2-yl)azetidin-1-yl]methanone]
7 | 91.4 | 136 | 80.6 | 2300 | Nc1cc(S(=O)(=O)c2ccc(OC(F)(F)F)cc2)cnc1C(=O)NCC1CCCOC1 (stereo not shown) [Compound 143, 3-amino-N-(tetrahydro-2H-pyran-3-ylmethyl)-5-{[4-(trifluoromethoxy)phenyl]sulfonyl}pyridine-2-carboxamide]
8 | 81.0 | > 667 | 28.1 | > 10000 | CC(C)(CO)NC(=O)c1ncc(S(=O)(=O)c2ccc(C(F)(F)F)cc2)cc1N [Compound 227, 3-amino-N-(1-hydroxy-2-methylpropan-2-yl)-5-{[4-(trifluoromethyl)phenyl]sulfonyl}pyridine-2-carboxamide]
9 | 105.0 | 75.4 | 47.6 | 760 | Nc1cc(S(=O)(=O)c2ccc(OC(F)(F)F)cc2)cnc1C(=O)NCC1CC(F)(F)C1 [Compound 153, 3-amino-N-[(3,3-difluorocyclobutyl)methyl]-5-{[4-(trifluoromethoxy)phenyl]sulfonyl}pyridine-2-carboxamide]
10 | 74.9 | 180 | 25.9 | > 10000 | Nc1cc(S(=O)(=O)c2ccc(OC(F)(F)F)cc2)cnc1C(=O)NCC1CCOCC1 [Compound 129, 3-amino-N-(tetrahydro-2H-pyran-4-ylmethyl)-5-{[4-(trifluoromethoxy)phenyl]sulfonyl}pyridine-2-carboxamide]
11 | 108.0 | 109 | 13.7 | > 10000 | COCC(O)CNC(=O)c1ncc(S(=O)(=O)N2CCC[C@@H]2C)cc1N (stereo partly drawn) [Compound 276, 3-amino-N-(2-hydroxy-3-methoxypropyl)-5-{[(2S)-2-methylpyrrolidin-1-yl]sulfonyl}pyridine-2-carboxamide]
12 | 94.0 | 238 | 63.5 | 1390 | CC1CCOCC1CNC(=O)c1ncc(S(=O)(=O)c2ccc(OC(F)(F)F)cc2)cc1N (stereo not shown) [Compound 156, 3-amino-N-[(4-methyltetrahydro-2H-pyran-3-yl)methyl]-5-{[4-(trifluoromethoxy)phenyl]sulfonyl}pyridine-2-carboxamide]
13 | 70.5 | 290 | 20.0 | > 10000 | CN1CC[C@@H](NC(=O)c2ncc(S(=O)(=O)c3ccc(OC(F)(F)F)cc3)cc2N)C1 [Compound 208, 3-amino-N-[(3R)-1-methylpyrrolidin-3-yl]-5-{[4-(trifluoromethoxy)phenyl]sulfonyl}pyridine-2-carboxamide]
14 | 101.0 | 10.1 | 55.0 | 1240 | Nc1cc(S(=O)(=O)c2ccc(F)cc2)cnc1C(=O)NCC(O)C(F)(F)F (stereo not shown) [Compound 27, 3-amino-5-[(4-fluorophenyl)sulfonyl]-N-(3,3,3-trifluoro-2-hydroxypropyl)pyridine-2-carboxamide]
15 | 103.9 | 78.2 | 57.4 | 2150 | Nc1cc(S(=O)(=O)c2ccc(OC(F)(F)F)cc2)cnc1C(=O)NCC1(CO)CCC1 [Compound 23, 3-amino-N-{[1-(hydroxymethyl)cyclobutyl]methyl}-5-{[4-(trifluoromethoxy)phenyl]sulfonyl}pyridine-2-carboxamide]
16 | 98.3 | 6.3 | 90.4 | 1200 | Nc1cc(S(=O)(=O)c2ccccc2OC(F)(F)F)cnc1C(=O)N[C@@H]1COCC[C@@H]1O (racemic) [Compound 83, rac-3-amino-N-[(3R,4S)-4-hydroxytetrahydro-2H-pyran-3-yl]-5-{[2-(trifluoromethoxy)phenyl]sulfonyl}pyridine-2-carboxamide]
17 | 98.5 | 86.2 | 60.5 | 880 | COCCCNC(=O)c1ncc(S(=O)(=O)c2ccc(OC(F)(F)F)cc2)cc1N [Compound 123, 3-amino-N-(3-methoxypropyl)-5-{[4-(trifluoromethoxy)phenyl]sulfonyl}pyridine-2-carboxamide]
18 | 113.9 | 23.6 | 52.7 | 566 | Nc1cc(S(=O)(=O)c2ccc(C(F)(F)F)cc2F)cnc1C(=O)N1CC(C(F)(F)F)C1 [Compound 160, (3-amino-5-{[2-fluoro-4-(trifluoromethyl)phenyl]sulfonyl}pyridin-2-yl)[3-(trifluoromethyl)azetidin-1-yl]methanone]
19 | 103.0 | 1.5 | 81.7 | 164 | Nc1cc(S(=O)(=O)c2ccc(C(F)(F)F)cc2F)cnc1C(=O)NC[C@@H](O)C(F)(F)F [Compound 107, 3-amino-5-{[2-fluoro-4-(trifluoromethyl)phenyl]sulfonyl}-N-[(2R)-3,3,3-trifluoro-2-hydroxypropyl]pyridine-2-carboxamide]
20 | 94.5 | 17.9 | 49.6 | 684 | COc1ccc(CN(C)S(=O)(=O)c2cnc(C(=O)NCC(O)C(F)(F)F)c(N)c2)cc1 (stereo not shown) [Compound 138, 3-amino-5-[(4-methoxybenzyl)(methyl)sulfamoyl]-N-(3,3,3-trifluoro-2-hydroxypropyl)pyridine-2-carboxamide]
21 | 97.2 | 50.4 | 51.9 | 2330 | Nc1cc(S(=O)(=O)c2ccc(OC(F)(F)F)cc2)cnc1C(=O)NCC1(O)CCOC1 (stereo not shown) [Compound 28, 3-amino-N-[(3-hydroxytetrahydrofuran-3-yl)methyl]-5-{[4-(trifluoromethoxy)phenyl]sulfonyl}pyridine-2-carboxamide]
22 | 98.8 | 205 | 53.9 | 836 | Nc1cc(S(=O)(=O)c2ccc(OC(F)(F)F)cc2)cnc1C(=O)N[C@@H]1CCOc2ccccc21 [Compound 145, 3-amino-N-[(4R)-3,4-dihydro-2H-chromen-4-yl]-5-{[4-(trifluoromethoxy)phenyl]sulfonyl}pyridine-2-carboxamide]
